The text below walks through data of ChEMBL document CHEMBL1127366, “Structure--activity relationships of sialyl Lewis x-containing oligosaccharides. 1. Effect of modifications of the fucose moiety” (J Med Chem, 1994).

This experiment deals with T1, E-selectin (Homo sapiens, UniProt P16581).
T1 sequence (P16581 whole entry): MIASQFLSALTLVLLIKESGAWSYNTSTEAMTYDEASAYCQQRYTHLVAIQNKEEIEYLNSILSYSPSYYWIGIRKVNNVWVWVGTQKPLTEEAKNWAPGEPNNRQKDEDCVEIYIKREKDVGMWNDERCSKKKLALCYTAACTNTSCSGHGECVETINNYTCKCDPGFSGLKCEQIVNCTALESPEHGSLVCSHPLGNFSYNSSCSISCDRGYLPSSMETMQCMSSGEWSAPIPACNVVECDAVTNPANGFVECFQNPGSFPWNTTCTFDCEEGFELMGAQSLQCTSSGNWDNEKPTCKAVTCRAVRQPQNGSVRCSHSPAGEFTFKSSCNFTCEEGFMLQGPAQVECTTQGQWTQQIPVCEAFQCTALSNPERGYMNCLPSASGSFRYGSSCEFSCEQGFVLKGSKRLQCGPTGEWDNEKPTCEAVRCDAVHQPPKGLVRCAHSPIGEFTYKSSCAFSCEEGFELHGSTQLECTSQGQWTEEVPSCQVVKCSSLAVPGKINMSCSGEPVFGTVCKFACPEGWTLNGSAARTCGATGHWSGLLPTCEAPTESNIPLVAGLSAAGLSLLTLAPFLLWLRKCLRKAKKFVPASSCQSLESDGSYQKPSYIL
Briefly: Tested for inhibition of cell adhesion of HL-60 containing SLeX to purified recombinant human E-selectin.

For orientation: IC50 means the midpoint of a concentration-inhibition curve. On to `CCO[C@@H]1O[C@@H](CO)[C@H](O)[C@H](O[C@@H]2O[C@@H](CO)[C@@H](O[C@@H]3O[C@@H](CO)[C@H](O)[C@H](O[C@]4(C(=O)ON)C[C@@H](O)[C@@H](NC(C)=O)C([C@H](O)[C@H](O)CO)O4)[C@@H]3O)[C@H](O[C@@H]3OC[C@@H](O)[C@H](O)[C@@H]3O)[C@@H]2NC(C)=O)[C@@H]1O` (stereo partly specified), for which the IC50 amounted to 5 mM.
